# Values joined by “and” are separate entries in the source; they are usually repeats but may differ in a detail not shown here. Equal entries are not always repeated. “Also recorded” adds a separate entry of the source.
# Key:
# human leukemic cells = details: cited from earlier work
# healthy cells = details: healthy vs degenerate cells; cited from earlier work
# [1] = adverse drug reactions (ADR) investigated during phase II studies; type: in vivo, humans
# Source text: During phase II studies, in accordance with requirements the adverse drug reactions (ADR) were also investigated. The result is shown in Table 2: The grading of the symptoms as transferred to the case report forms took place in accordance with the internationally used WHO classification. The assessment “yes” means that a symptom is caused by the medicine.
# brain tumors = assay: clinical phase II study with edelfosine: result of therapy and survival time; type: in vivo, humans; details: for Result of therapy (clin.): assessed on clinical symptoms (clin.)
# Description: The patients which are listed below in Table 1, with their status before and after treatment, were treated with edelfosine in the phase II study. It is important to emphasize in this connection that virtually all the patients have previously been treated or were from the outset untreatable (inoperable tumors). All the patients were treated with an average of 300 mg of edelfosine/day (range of variation between 50 and 600 mg). […] The carrier medium/active ingredient mixture is drunk in different dose levels/portion, which differed from patient to patient, distributed over the day. Administration is accordingly oral; the treatment is entirely on an outpatient basis, unless the clinical picture makes admission to hospital unavoidable.
# The number and duration of previous treatments before the start of therapy with a medicine are crucial for assessing the therapeutic efficacy=survival time and quality of survival; the survival time is in such cases always measured from the time at which the therapy with a medicine is started. The time which has elapsed from diagnosis until the start of treatment initially plays no direct part in this. However, it must be taken into account when the survival time of a last resort therapy (as edelfosine in this case) is compared with that of therapies which are usually started immediately after diagnosis (this is the case for chemotherapy and radiation studies).
# For virtually all the patients, a tumor which continued to grow after all the therapies used led to the edelfosine therapy, i.e. the tumor was progressive (cf. Table 1, column “Tumor activity”). The specification of “clinical” progression means in this connection that the tumor was progressive on the basis of deteriorating clinical symptoms (for example increase in headaches, congestion in the head, dizziness, tendency to fall, neurological symptoms in general), but no objective study (for example CT) was available for comparison.
# The pharmacodynamic effect, i.e. the effect of a medicine directly on the tumor, is normally measured 2 months after starting a therapy. This pharmacodynamic effect is defined differently depending on which class the substance belongs to (that is to say cytostatic, hormone product, immunomodulator etc.). […] The aim of therapy is accordingly a cessation of tumor growth (no change).
# The survival time is measured from the start of therapy with a medicine. The state of the art survival time data reported in the literature for the treatment of brain tumors are usually based on either adjuvant treatment of patients, that is to say directly after surgical removal of a tumor, or else on treatment immediately after making the diagnosis.
# [2] = ADR caused by edelfosine, number of 150 courses
# [3] = ADR caused by edelfosine, number of 159 courses
# [4] = ADR not caused by edelfosine, number of 149 courses
# [5] = ADR not caused by edelfosine, number of 150 courses
# [6] = ADR not caused by edelfosine, number of 159 courses
# [7] = ADR possibly caused by edelfosine, number of 150 courses
# [8] = ADR possibly caused by edelfosine, number of 159 courses
# [9] = no symptom reported, number of 149 courses
# [10] = no symptom reported, number of 150 courses
# [11] = patients with Karnofsky index <70% (N=16)
smiles,measurement,setting,value
"CCCCCCCCCCCCCCCCCCOC[C@H](COP(=O)([O-])OCC[N+](C)(C)C)OC (racemic) [edelfosine, 1-octadecyl-2-methyl-sn-glycero-3-phosphocholine]",apoptosis,human leukemic cells,reinduction of apoptosis
same,fate in healthy cells after uptake,healthy cells,degraded in healthy cells
same,"Appetite, Grade 1 yes",[1]; [2],4
same,"Appetite, Grade 2 yes",[1]; [2],1
same,"Appetite, Grade 3 yes",[1]; [2],2
same,"Constipation, Grade 1 yes",[1]; [2],3
same,"Diarrhea, Grade 1 yes",[1]; [2],5
same,"Diarrhea, Grade 2 yes",[1]; [2],1
same,"Nausea/vomiting, Grade 1 yes",[1]; [3],12
same,"Nausea/vomiting, Grade 2 yes",[1]; [3],2
same,"CNS toxicity, Grade 1 no","[1]; ADR not caused by edelfosine, number of 135 courses",1
same,"Skin changes, Grade 4 no","[1]; ADR not caused by edelfosine, number of 148 courses",3
same,"Alopecia, Grade 1 no",[1]; [4],3
same,"Alopecia, Grade 2 no",[1]; [4],1
same,"Alopecia, Grade 3 no",[1]; [4],3
same,"Alopecia, Grade 4 no",[1]; [4],16
same,"Pain, Grade 1 no",[1]; [4],7
same,"Pain, Grade 2 no",[1]; [4],5
same,"Pain, Grade 3 no",[1]; [4],3
same,"Periph. neurop., Grade 1 no",[1]; [4],18
same,"Appetite, Grade 1 no",[1]; [5],4
same,"Appetite, Grade 2 no",[1]; [5],1
same,"Appetite, Grade 3 no",[1]; [5],4
same,"Appetite, Grade 4 no",[1]; [5],1
same,"Arrhythmia, Grade 1 no",[1]; [5],5
same,"Constipation, Grade 1 no",[1]; [5],1
same,"Diarrhea, Grade 2 no",[1]; [5],1
same,"Dyspnea, Grade 1 no",[1]; [5],4
same,"Dyspnea, Grade 2 no",[1]; [5],3
same,"Dyspnea, Grade 3 no",[1]; [5],1
same,"Dyspnea, Grade 4 no",[1]; [5],1
same,"Fever, Grade 1 no",[1]; [5],1
same,"Fever, Grade 2 no",[1]; [5],7
same,"Hemorrhages, Grade 1 no",[1]; [5],2
same,"Infection, Grade 1 no",[1]; [5],3
same,"Infection, Grade 2 no",[1]; [5],1
same,"Nausea/vomiting, Grade 1 no",[1]; [6],1
same,"Nausea/vomiting, Grade 2 no",[1]; [6],8
same,"Nausea/vomiting, Grade 3 no",[1]; [6],2
same,"CNS toxicity, Grade 1 ?","[1]; ADR possibly caused by edelfosine, number of 135 courses",1
same,"Alopecia, Grade 1 ?","[1]; ADR possibly caused by edelfosine, number of 149 courses",1
same,"Appetite, Grade 1 ?",[1]; [7],5
same,"Appetite, Grade 2 ?",[1]; [7],2
same,"Appetite, Grade 3 ?",[1]; [7],2
same,"Constipation, Grade 1 ?",[1]; [7],3
same,"Diarrhea, Grade 1 ?",[1]; [7],1
same,"Nausea/vomiting, Grade 1 ?",[1]; [8],5
same,"Nausea/vomiting, Grade 2 ?",[1]; [8],6
same,cumulative toxicity,[1]; after several years of uninterrupted therapy,no cumulative toxicity
same,reversibility of observed ADR symptoms,[1]; edelfosine therapy,reversible within a very short time (hours)
same,"CNS toxicity, Grade 0","[1]; no symptom reported, number of 135 courses",133
same,"Skin changes, Grade 0","[1]; no symptom reported, number of 148 courses",145
same,"Alopecia, Grade 0",[1]; [9],125
same,"Hematuria, Grade 0",[1]; [9],149
same,"Pain, Grade 0",[1]; [9],133
same,"Periph. neurop., Grade 0",[1]; [9],131
same,"Stomatitis, Grade 0",[1]; [9],149
same,"Appetite, Grade 0",[1]; [10],123
same,"Arrhythmia, Grade 0",[1]; [10],145
same,"Constipation, Grade 0",[1]; [10],143
same,"Diarrhea, Grade 0",[1]; [10],142
same,"Dyspnea, Grade 0",[1]; [10],141
same,"Fever, Grade 0",[1]; [10],142
same,"Heart failure, Grade 0",[1]; [10],150
same,"Hemorrhages, Grade 0",[1]; [10],148
same,"Infection, Grade 0",[1]; [10],146
same,"Allergy, Grade 0","[1]; no symptom reported, number of 151 courses",151
same,"Nausea/vomiting, Grade 0","[1]; no symptom reported, number of 159 courses",121
same,"esophagoscopy, gastroscopy findings",[1]; patients with nausea/vomiting (gastric pressure) during edelfosine therapy,no pathological findings at all
same,adverse drug reactions of Pat. No. 542,"[1]; therapy of about 6 years, total dose of about 640 g",negligible adverse drug reactions; also recorded: no ADRs at all
same,Result of therapy,brain tumors; Anaplastic oligodendroglioma,No further progression
same,Result of therapy,brain tumors; Astrocytoma II,No further progression
same,Result of therapy,brain tumors; Astrocytoma II/III,No further progression
same,Survival time,brain tumors; Astrocytoma II/III,412 days
same,Result of therapy (clin.),brain tumors; Astrocytoma II,No further progression
same,Result of therapy,brain tumors; Ependymoblastoma,Progression
same,Survival time,brain tumors; Ependymoblastoma,196 days
same,Result of therapy,brain tumors; Glioblastoma (Ø histol.),Progression
same,Result of therapy (clin.),brain tumors; Glioblastoma (Ø histol.),No further progression
same,Result of therapy,brain tumors; Glioblastoma IV,Progression
same,Survival time,brain tumors; Glioblastoma IV,143 days and 266 days
same,Result of therapy,brain tumors; Glioblastoma IV + Gliosarcoma,No further progression
same,Survival time,brain tumors; Glioblastoma IV + Gliosarcoma,203 days
same,Result of therapy (clin.),brain tumors; Glioblastoma IV,No further progression
same,Result of therapy (clin.),brain tumors; Glioblastoma multiforme,No further progression
same,survival of Pat. No. 247,"brain tumors; Glioblastoma, many years after completion of therapy",survived until the 8th year
same,Result of therapy,brain tumors; Gliosarcoma,No further progression
same,Survival time,brain tumors; Gliosarcoma,110 days
same,Survival time,brain tumors; Oligoastrocytoma II,270 days
same,Result of therapy (clin.),brain tumors; Oligoastrocytoma II,No further progression
same,Result of therapy,brain tumors; Oligoastrocytoma IV,No further progression
same,Survival time,brain tumors; Oligoastrocytoma IV,1602 days
same,Result of therapy,brain tumors; Oligodendroglioma III,No further progression
same,Survival time,brain tumors; Oligodendroglioma III,573 days
same,Result of therapy,brain tumors; Oligodendroglioma III/IV,No further progression
same,Survival time,brain tumors; Oligodendroglioma III/IV,2141 days
same,Result of therapy,brain tumors; Oligodendroglioma IV,No further progression
same,Survival time,brain tumors; Oligodendroglioma IV,572 days
same,patients with clinical stabilization/improvement although tumor progressive according to imaging,brain tumors; after 2 months,2%
same,treated patients with tumor still progressive,brain tumors; after 2 months,about 24%
same,treated patients with stabilization on the basis of clinical symptoms (cNC=clinical no change),"brain tumors; after 2 months of therapy, no objective study",approx. 14%
same,treated patients with cessation of tumor growth (NC=no change),brain tumors; imaging study after 2 months of therapy,about 56%
same,maximum gain in survival time,brain tumors; patients with Karnofsky index <70%,> 20 months
same,average survival time,brain tumors; [11],about 260 days
same,range of variation of survival time,brain tumors; [11],90 to 619 days
